Test results taken from publication PMC6273692, “Binding Mode and Selectivity of Steroids towards Glucose-6-phosphate Dehydrogenase from the Pathogen Trypanosoma cruzi” (Molecules, 2016).
Where two headings read alike, the source gives them in different places.

Columns and labels:
TcG6PDH wildtype = TcG6PDH wildtype (Trypanosoma cruzi, UniProt Q1WBU6); experiment: Inhibitor assay with wildtype TcG6PDH (NADPH formation at 340 nm); format: biochemical; conditions: for activity at 30 µM: read-out: G6PDH Activity [%] ± SD at 30 µM Compound; for increase of potency towards the parasite enzyme compared to the parental scaffold (EA): vs EA; for inhibition at 30 µM: read-out: inhibition at 30 μM compound
human G6PDH = conditions: cited from earlier work; for increase of inhibition of human G6PDH compared to the parental scaffold (EA): vs EA; for IC50: read-out: IC50 (anti-human G6PDH activity)
[1] = test system: African trypanosomes expressing an ectopic copy of L. mexicana G6PDH; conditions: endogenous G6PDH deficient; cited from earlier work
T. cruzi G6PDH (TcG6PDH) = conditions: cited from earlier work
G6PDH from T. brucei = conditions: cited from earlier work
WT TcG6PDH = experiment: Kinetic assay of WT TcG6PDH with substrates
Protocol: G6PDH activity was determined at ~25 °C by monitoring NADPH (ε340 = 6220 M^−1·cm^−1) formation at 340 nm. All assays were performed in buffer B (50 mM Tris pH 7.5, 5 mM MgCl2) in a final reaction volume of 150 µL and started by addition of glucose-6-phosphate (G6P). For WT TcG6PDH, the Michaelis’ constants (KM) and the maximum initial velocity (Vmax) were determined varying reciprocally the substrate (10, 50, 200, 1000 and 5000 µM G6P) and coenzyme (5, 10, 50, 250 and 625 µM NADP^+) concentrations. For the mutants, the kinetic characterization was performed at a fixed saturating concentration of the corresponding co-substrate (i.e., 6 mM G6P and 700 µM NADP^+) and varying concentrations of the substrate (25, 50, 70, 100, 250, 350, 500 and 700 µM NADP^+, and 0.005, 0.025, 0.05, 0.25, 0.65, 1, 2.5 and 5 mM G6P). […] The first 30 s of the reaction were used to calculate initial velocities that were normalized by the corresponding enzyme concentration in the assay. All measurements were performed in triplicate using a Cary 50 Bio spectrophotometer (Agilent Technologies, Santa Clara, CA, USA). The initial rates were determined with the Origin Pro 8.0 software (OriginLab Corporation, Northampton, MA, USA), and the apparent kinetic constants were calculated by nonlinear regression using the GraphPad Prism 5.0 software (GraphPad Inc., San Diego, CA, USA). The data were fitted to the Cleland or Michaelis-Menten equation to obtain the corresponding kinetic parameters.

Sequence of TcG6PDH wildtype (Q1WBU6 entry or part of it): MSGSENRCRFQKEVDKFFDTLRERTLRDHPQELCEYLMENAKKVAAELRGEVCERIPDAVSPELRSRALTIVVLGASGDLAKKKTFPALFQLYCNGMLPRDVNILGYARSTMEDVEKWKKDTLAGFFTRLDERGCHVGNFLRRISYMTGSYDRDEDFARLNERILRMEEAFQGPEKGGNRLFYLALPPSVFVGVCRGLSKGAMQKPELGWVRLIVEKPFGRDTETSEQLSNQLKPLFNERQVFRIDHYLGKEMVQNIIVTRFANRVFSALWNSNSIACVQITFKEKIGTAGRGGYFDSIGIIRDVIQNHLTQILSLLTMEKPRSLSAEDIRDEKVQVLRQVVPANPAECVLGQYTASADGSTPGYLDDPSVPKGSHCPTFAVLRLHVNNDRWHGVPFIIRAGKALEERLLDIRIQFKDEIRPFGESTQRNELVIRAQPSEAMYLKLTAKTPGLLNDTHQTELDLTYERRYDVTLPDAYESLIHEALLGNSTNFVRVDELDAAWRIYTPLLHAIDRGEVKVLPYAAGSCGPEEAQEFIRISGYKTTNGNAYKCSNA

**Q.** Which results are given for `C[C@]12CC[C@H](NS(N)(=O)=O)CC1CCC1C2CC[C@]2(C)C(=O)CCC12` (stereo partly shown) [Compound 2]?
**A.** IC50 (TcG6PDH wildtype): 2200 nM; activity at 30 µM (TcG6PDH wildtype): 9 ± 1%; increase of potency towards the parasite enzyme compared to the parental scaffold (EA) (TcG6PDH wildtype): ≤ 2 fold; increase of inhibition of human G6PDH compared to the parental scaffold (EA) (human G6PDH): ~ 10 fold

**Q.** For `C[C@]12CC[C@H](O)C[C@@H]1CC[C@@H]1[C@@H]2CC[C@]2(C)C(=O)CC[C@@H]12` [EA, epiandrosterone, reference compound], which IC50 (TcG6PDH wildtype) is on record?
**A.** Its IC50 is 3000 ± 400 nM.

**Q.** And the activity at 30 µM (TcG6PDH wildtype)?
**A.** Its activity at 30 µM is 12 ± 2%.

**Q.** And the Ki (human G6PDH)?
**A.** The Ki was 3000 nM.

**Q.** What about the “sensitivity of trypanosomes expressing L. mexicana G6PDH” value [1] of the same compound?
**A.** The value was “resistant”.

**Q.** And the Ki (T. cruzi G6PDH (TcG6PDH))?
**A.** The Ki was 1000 to 5600 nM.

**Q.** What about the Ki (G6PDH from T. brucei) of the same compound?
**A.** Its Ki is 500 nM.

**Q.** Which IC50 (TcG6PDH wildtype) does the source give for `CCNC(=O)N[C@H]1CC[C@@]2(C)C(CCC3C2CC[C@]2(C)C(=O)CCC32)C1` (stereo partly shown) [Compound 1] here?
**A.** The IC50 was 1500 nM.

**Q.** What about the activity at 30 µM (TcG6PDH wildtype) of the same compound?
**A.** The activity at 30 µM was 7 ± 1%.

**Q.** What about the “increase of potency towards the parasite enzyme compared to the parental scaffold (EA)” value (TcG6PDH wildtype) of the same compound?
**A.** The value was at most 2 fold.

**Q.** And the “increase of inhibition of human G6PDH compared to the parental scaffold (EA)” value (human G6PDH)?
**A.** The value was ~ 10 fold.

**Q.** Which Km (WT TcG6PDH; read-out: KM NADP^+, apparent, triplicate) does the source give for `NC(=O)c1ccc[n+]([C@@H]2O[C@H](COP(=O)([O-])OP(=O)(O)OC[C@H]3O[C@@H](n4cnc5c(N)ncnc54)[C@H](OP(=O)(O)O)[C@@H]3O)[C@@H](O)[C@H]2O)c1` [NADP^+] here?
**A.** The Km was 16 ± 3 µM.

**Q.** What about the kcat (WT TcG6PDH; varying NADP+) of the same compound?
**A.** Its kcat is 52 ± 2 s⁻¹.

**Q.** For `C[C@]12CC[C@H](O)CC1CCC1C2CC[C@]2(C)C(=O)C(Br)CC12` (stereo partly shown) [Compound 16Br-EA, 16-bromo epiandrosterone, reference compound], which “activity against human G6PDH relative to TcG6PDH” value (human G6PDH) is on record?
**A.** Its value is “almost two orders of magnitude less active”.

**Q.** Which results are given for `C[C@]12CC[C@H](O)CC1=CC[C@@H]1[C@@H]2CC[C@]2(C)C(=O)CC[C@@H]12` [DHEA, dehydroepiandrosterone]?
**A.** Ki (human G6PDH): 6000 to 9000 nM; Ki (T. cruzi G6PDH (TcG6PDH)): 2600 to 25000 nM; Ki (G6PDH from T. brucei): 1700 nM

**Q.** Which activity at 30 µM (TcG6PDH wildtype) does the source give for `C[C@]12CC[C@H](NS(N)(=O)=O)CC1CCC1C2CC[C@@]2(C)C1CC[C@@H]2C(=O)CO` (stereo partly shown) [Compound 3] here?
**A.** Its activity at 30 µM is 30 ± 2%.

**Q.** What about the inhibition at 30 µM (TcG6PDH wildtype) of the same compound?
**A.** The inhibition at 30 µM was 60 to 70%.

**Q.** And the IC50 (human G6PDH)?
**A.** Its IC50 is about 2000 nM.

**Q.** Which Km (WT TcG6PDH; read-out: KM G6P, apparent, triplicate) does the source give for `O=C[C@H](O)[C@@H](O)[C@H](O)[C@H](O)COP(=O)(O)O` [Compound G6P, glucose-6-phosphate] here?
**A.** The Km was 77 ± 20 µM.

**Q.** And the kcat (WT TcG6PDH; varying G6P)?
**A.** Its kcat is 62 ± 3 s⁻¹.

**Q.** Which activity at 30 µM (TcG6PDH wildtype) does the source give for `C[C@]12CC[C@H](O)CC1CCC1C2CC[C@@]2(C)C1CC[C@@H]2C(=O)CO` (stereo partly shown) [Compound 4] here?
**A.** The activity at 30 µM was 43 ± 2%.

**Q.** What about the inhibition at 30 µM (TcG6PDH wildtype) of the same compound?
**A.** The inhibition at 30 µM was 60 to 70%.

**Q.** And the IC50 (human G6PDH)?
**A.** Its IC50 is about 2000 nM.
